Seven compounds from patent US20240199542A1, “SUBSTITUTED PYRROLIDIN-2-ONES, SALTS THEREOF AND THEIR USE AS HERBICIDALLY ACTIVE SUBSTANCES” (Bayer Aktiengesellschaft, priority 2021, published 2024) can be followed below.

Holding throughout (type): in vivo
The test system of test [1] is Alopecurus myosuroides (ALOMY). As to the kind of experiment: Herbicidal post-emergence action. To be noted: assessed after ca. 3 weeks. An outline of the steps: (§1)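 Applied rates were 1280 or 320 g/ha, as aqueous WP or EC spray with 0.5% additive at 600 l water/ha onto single-leaf-stage plants grown 2–3 weeks in sandy loam. Effect was rated visually about 3 weeks later, 0% matching controls and 100% plants dead.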

Test [2] relates to Avena fatua (AVEFA). As to the kind of experiment: Herbicidal post-emergence action. The settings on record: assessed after ca. 3 weeks. Summed up:
as §1

The subject of test [3] is Digitaria sanguinalis (DIGSA). As to the kind of experiment: Herbicidal post-emergence action. To be noted: 320 g/ha, assessed after ca. 3 weeks. An outline of the steps:
as §1

The next test concerns Viola tricolor (VIOTR). In words: Herbicidal pre-emergence action. To be noted: 320 g/ha, graded after ca. 3 weeks. Summed up: (§2)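 Percent herbicidal effect, from 0% (as untreated) to 100% (plants dead), was graded visually about 3 weeks after treatment under optimal greenhouse conditions. Compounds, as WP or EC with 0.5% additive in 600 l water/ha at up to 1280 g/ha, were applied to covering soil over freshly sown seeds in sandy loam.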

For test [4], the system named is Polygonum convolvulus (POLCO). As to the kind of experiment: Herbicidal pre-emergence action. To be noted: 320 g/ha, graded after ca. 3 weeks. Summed up: as §2
For test [5], the system named is Avena fatua (AVEFA). In words: Herbicidal pre-emergence action. The settings on record: graded after ca. 3 weeks. An outline of the steps:
as §2

In test [6] the test system is Digitaria sanguinalis (DIGSA). In words: Herbicidal pre-emergence action. The settings on record: 320 g/ha, graded after ca. 3 weeks. Summed up: as §2
In test [7] the test system is Echinochloa crus-galli (ECHCG). As to the kind of experiment: Herbicidal post-emergence action. To be noted: assessed after ca. 3 weeks. Summed up:
as §1

In test [8] the test system is Polygonum convolvulus (POLCO). As to the kind of experiment: Herbicidal post-emergence action. The settings on record: assessed after ca. 3 weeks. An outline of the steps: as §1
In test [9] the test system is Lolium multiflorum (LOLMU). In words: Herbicidal post-emergence action. The settings on record: assessed after ca. 3 weeks. Summed up: as §1
For test [10], the system named is Alopecurus myosuroides (ALOMY). In words: Herbicidal pre-emergence action. The settings on record: graded after ca. 3 weeks. An outline of the steps:
as §2

Test [11] concerns Echinochloa crus-galli (ECHCG). As to the kind of experiment: Herbicidal pre-emergence action. The settings on record: 1280 g/ha, graded after ca. 3 weeks. An outline of the steps:
as §2

Another test deals with Veronica persica (VERPE). In words: Herbicidal pre-emergence action. To be noted: graded after ca. 3 weeks. Summed up: as §2
For test [12], the system named is Cyperus esculentus (CYPES). In words: Herbicidal pre-emergence action. To be noted: 1280 g/ha, graded after ca. 3 weeks. An outline of the steps: as §2
Test [13] relates to Setaria viridis (SETVI). As to the kind of experiment: Herbicidal post-emergence action. To be noted: 1280 g/ha, assessed after ca. 3 weeks. Summed up:
as §1

For test [14], the system named is Setaria viridis (SETVI). In words: Herbicidal pre-emergence action. The settings on record: 1280 g/ha, graded after ca. 3 weeks. An outline of the steps:
as §2

In test [15] the test system is Lolium multiflorum (LOLMU). As to the kind of experiment: Herbicidal pre-emergence action. The settings on record: 1280 g/ha, graded after ca. 3 weeks. An outline of the steps:
as §2

`O=C(CC1CCC(=O)N1Cc1cccc(F)c1F)NN1CCCC1` (stereo not drawn) [Example I-200, 2-[1-[(2,3-difluorophenyl)methyl]-5-oxo-pyrrolidin-2-yl]-N-(pyrrolidin-1-yl)acetamide]: in test [1] (320 g/ha), the “Post-emergence activity against ALOMY” value is listed as 80%. For the same compound, the “Post-emergence activity against AVEFA” value in the test on Avena fatua (AVEFA) [2] (320 g/ha) is 80%. Besides, the “Post-emergence activity against DIGSA” value in test [3] stood at 80%. Moreover, the “Pre-emergence activity against VIOTR” value in the test on Viola tricolor (VIOTR) is on record as 80%. Also, the “Pre-emergence activity against POLCO” value in test [4] is listed as 90%. Also, the “Pre-emergence activity against AVEFA” value with Avena fatua (AVEFA) [5] (320 g/ha) is 100%. Also, in test [6], the “Pre-emergence activity against DIGSA” value is on record as 80%.
Take `O=C(CC1CCC(=O)N1Cc1cccc(F)c1F)Nc1nnc(C(F)F)s1` (racemic) [Example I-195]: the “Pre-emergence activity against VIOTR” value in the test on Viola tricolor (VIOTR) is reported as 80%.
For the compound `COc1ccc(SCCOC(=O)CC2CCC(=O)N2Cc2cccc(F)c2F)cc1` (racemic) [Example I-040], in test [1] (1280 g/ha), the “Post-emergence activity against ALOMY” value is on record as 90%. For the same compound, the “Post-emergence activity against ECHCG” value in [7] (1280 g/ha) is recorded as 80%. For the same compound, in test [8] (1280 g/ha), the “Post-emergence activity against POLCO” value was found to be 80%. The “Post-emergence activity against LOLMU” value in test [9] (1280 g/ha) came to 80%. In addition, the “Pre-emergence activity against ALOMY” value in [10] (1280 g/ha) is on record as 90%. Moreover, in test [11], the “Pre-emergence activity against ECHCG” value was determined as 80%. In the test on Veronica persica (VERPE) (1280 g/ha), the “Pre-emergence activity against VERPE” value is listed as 90%. The “Pre-emergence activity against CYPES” value in test [12] worked out at 80%. Further, the “Pre-emergence activity against AVEFA” value with Avena fatua (AVEFA) [5] (1280 g/ha) came out at 90%.
For `Cc1ccc(SCCOC(=O)CC2CCC(=O)N2Cc2cccc(F)c2F)cc1` (racemic) [Example I-041], the “Post-emergence activity against ALOMY” value in [1] (320 g/ha) is given as 80%. For the same compound, in test [7] (320 g/ha), the “Post-emergence activity against ECHCG” value is 90%. Moreover, the “Post-emergence activity against POLCO” value in test [8] (320 g/ha) is 80%. In addition, the “Post-emergence activity against LOLMU” value in test [9] (320 g/ha) stood at 80%. For the same compound, the “Pre-emergence activity against ALOMY” value in [10] (320 g/ha) is recorded as 80%. For the same compound, in the test with Veronica persica (VERPE) (320 g/ha), the “Pre-emergence activity against VERPE” value worked out at 90%. In addition, the “Pre-emergence activity against AVEFA” value with Avena fatua (AVEFA) [5] (320 g/ha) is reported as 90%.
Regarding `Cc1ccc(OCCOC(=O)CC2CCC(=O)N2Cc2cccc(F)c2F)cc1` (stereo not drawn) [Example I-034, 2-(4-methylphenoxy)ethyl 2-[1-[(2,3-difluorophenyl)methyl]-5-oxo-pyrrolidin-2-yl]acetate], the “Post-emergence activity against ALOMY” value in test [1] (1280 g/ha) was determined as 80%. Moreover, the “Post-emergence activity against ECHCG” value in test [7] (1280 g/ha) came to 90%. In addition, the “Post-emergence activity against POLCO” value in [8] (1280 g/ha) is on record as 80%. Also, the “Post-emergence activity against SETVI” value in the test with Setaria viridis (SETVI) [13] stood at 80%. Besides, the “Post-emergence activity against LOLMU” value in test [9] (1280 g/ha) is 90%. In addition, the “Pre-emergence activity against ALOMY” value in test [10] (1280 g/ha) is listed as 90%. In [11], the “Pre-emergence activity against ECHCG” value came to 80%. The “Pre-emergence activity against VERPE” value with Veronica persica (VERPE) (1280 g/ha) is 100%. For the same compound, the “Pre-emergence activity against AVEFA” value in the test on Avena fatua (AVEFA) [5] (1280 g/ha) is listed as 100%.
Take `Cc1cccc(CN2C(=O)CCC2CC(=O)O)c1C` (racemic) [Example I-194]: in test [3], the “Post-emergence activity against DIGSA” value is recorded as 90%.
With `C=CCCOC(=O)CC1CCC(=O)N1Cc1cccc(F)c1F` (racemic) [Example I-026], the “Post-emergence activity against ALOMY” value in [1] (1280 g/ha) was 80%. In addition, in [7] (1280 g/ha), the “Post-emergence activity against ECHCG” value was 80%. Moreover, the “Post-emergence activity against POLCO” value in [8] (1280 g/ha) turned out to be 80%. The “Post-emergence activity against AVEFA” value in the test with Avena fatua (AVEFA) [2] (1280 g/ha) stood at 90%. Moreover, the “Post-emergence activity against LOLMU” value in test [9] (1280 g/ha) came out at 80%. The “Pre-emergence activity against ALOMY” value in test [10] (1280 g/ha) turned out to be 90%. Moreover, the “Pre-emergence activity against ECHCG” value in [11] turned out to be 90%. Also, in the test on Setaria viridis (SETVI) [14], the “Pre-emergence activity against SETVI” value is given as 80%. The “Pre-emergence activity against CYPES” value in [12] came to 90%. Besides, the “Pre-emergence activity against AVEFA” value in the test on Avena fatua (AVEFA) [5] (1280 g/ha) is recorded as 100%. Also, in test [15], the “Pre-emergence activity against LOLMU” value turned out to be 90%.
